Source: ChEMBL document CHEMBL1201861, “Genomics of Drug Sensitity in Cancer screening data, Wellcome Trust Sanger Institute”
pIC50: −log10 of the molar value.

Legend:
Experiment in all cases: cells
Format in all cases: functional, cell-based
Conditions in all cases: Homo sapiens
[1] = system: NCI-H1299;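 further: growth inhibition of human NCI-H1299 cells, read out by a cell viability assay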
Description: SANGER: Inhibition of human NCI-H1299 cell growth in a cell viability assay.

[2] = system: BB49-HNC;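 further: cell viability assay read-out, reported as inhibition of BB49-HNC cell growth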
Description: SANGER: Inhibition of human BB49-HNC cell growth in a cell viability assay.

[3] = system: HT
Description: SANGER: Inhibition of human HT cell growth in a cell viability assay.

[4] = system: SK-N-DZ;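 further: growth inhibition of the cancer cell line, read out through a viability assay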
Description: SANGER: Inhibition of human SK-N-DZ cell growth in a cell viability assay.

[5] = system: LB2518-MEL;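 further: growth inhibition of human LB2518-MEL cells, measured with a cell viability assay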
Description: SANGER: Inhibition of human LB2518-MEL cell growth in a cell viability assay.

[6] = system: NCI-H1092;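 further: cell growth inhibition measured with a cell viability assay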
Description: SANGER: Inhibition of human NCI-H1092 cell growth in a cell viability assay.

[7] = system: MLMA;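 further: growth inhibition of MLMA cells (human), determined through a cell viability readout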
Description: SANGER: Inhibition of human MLMA cell growth in a cell viability assay.

[8] = system: NCI-H446;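 further: growth inhibition of NCI-H446 cells determined by a cell viability assay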
Description: SANGER: Inhibition of human NCI-H446 cell growth in a cell viability assay.

[9] = system: TGBC1TKB;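 further: growth inhibition of TGBC1TKB cells, read out by a cell viability assay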
Description: SANGER: Inhibition of human TGBC1TKB cell growth in a cell viability assay.

[10] = system: RCC10RGB;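 further: growth inhibition of human RCC10RGB cells, read out by a cell viability assay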
Description: SANGER: Inhibition of human RCC10RGB cell growth in a cell viability assay.

[11] = system: DJM-1;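 further: growth inhibition of human DJM-1 cells, read out by a cell viability assay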
Description: SANGER: Inhibition of human DJM-1 cell growth in a cell viability assay.

[12] = system: JVM-3;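 further: growth inhibition of human JVM-3 cells, read out with a cell viability assay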
Description: SANGER: Inhibition of human JVM-3 cell growth in a cell viability assay.

[13] = system: ES3;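 further: growth inhibition of ES3 cells, read out with a cell viability assay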
Description: SANGER: Inhibition of human ES3 cell growth in a cell viability assay.

[14] = system: EW-11;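 further: growth inhibition of human EW-11 cells, measured with a cell viability assay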
Description: SANGER: Inhibition of human EW-11 cell growth in a cell viability assay.

[15] = system: no-10;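 further: growth inhibition of no-10 cells, read out with a cell viability assay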
Description: SANGER: Inhibition of human no-10 cell growth in a cell viability assay.

[16] = system: EKVX;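 further: growth inhibition of human EKVX cells, read out with a cell viability assay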
Description: SANGER: Inhibition of human EKVX cell growth in a cell viability assay.

[17] = system: TE-10;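 further: growth inhibition of TE-10 cells, measured by a cell viability assay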
Description: SANGER: Inhibition of human TE-10 cell growth in a cell viability assay.

[18] = system: KINGS-1;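 further: cell viability assay measuring suppression of KINGS-1 cell growth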
Description: SANGER: Inhibition of human KINGS-1 cell growth in a cell viability assay.

[19] = system: HAL-01;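 further: growth inhibition of human HAL-01 cells, read out with a cell viability assay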
Description: SANGER: Inhibition of human HAL-01 cell growth in a cell viability assay.

[20] = system: ONS-76;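 further: growth inhibition of human ONS-76 cells, read out with a cell viability assay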
Description: SANGER: Inhibition of human ONS-76 cell growth in a cell viability assay.

[21] = system: L-363
Description: SANGER: Inhibition of human L-363 cell growth in a cell viability assay.

[22] = system: COLO-320-HSR;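 further: growth inhibition of COLO-320-HSR cells, determined with a cell viability assay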
Description: SANGER: Inhibition of human COLO-320-HSR cell growth in a cell viability assay.

[23] = system: CGTH-W-1;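 further: growth inhibition of human CGTH-W-1 cells measured by cell viability assay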
Description: SANGER: Inhibition of human CGTH-W-1 cell growth in a cell viability assay.

[24] = system: A388;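 further: growth inhibition of human A388 cells, read out with a cell viability assay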
Description: SANGER: Inhibition of human A388 cell growth in a cell viability assay.

[25] = system: A101D;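 further: growth inhibition of the cell line, measured with a viability assay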
Description: SANGER: Inhibition of human A101D cell growth in a cell viability assay.

[26] = system: COLO-824
Description: SANGER: Inhibition of human COLO-824 cell growth in a cell viability assay.

[27] = system: MOLT-4;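 further: growth inhibition of MOLT-4 cells, determined with a cell viability readout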
Description: SANGER: Inhibition of human MOLT-4 cell growth in a cell viability assay.

[28] = system: DMS-114
[29] = system: DSH1;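 further: growth inhibition of human DSH1 cells, measured with a cell viability readout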
Description: SANGER: Inhibition of human DSH1 cell growth in a cell viability assay.

[30] = system: CCRF-CEM;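 further: inhibition of CCRF-CEM cell growth, measured by a cell viability assay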
Description: SANGER: Inhibition of human CCRF-CEM cell growth in a cell viability assay.

[31] = system: ES4;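 further: growth inhibition of human ES4 cells, read out by a cell viability assay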
Description: SANGER: Inhibition of human ES4 cell growth in a cell viability assay.

[32] = system: L-428
Description: SANGER: Inhibition of human L-428 cell growth in a cell viability assay.

[33] = system: KP-N-YS;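 further: cell viability assay measuring inhibition of cell line growth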
Description: SANGER: Inhibition of human KP-N-YS cell growth in a cell viability assay.

[34] = system: SK-MEL-1;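 further: growth inhibition of human SK-MEL-1 cells, read out by a cell viability assay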
Description: SANGER: Inhibition of human SK-MEL-1 cell growth in a cell viability assay.

[35] = system: HH
Description: SANGER: Inhibition of human HH cell growth in a cell viability assay.

[36] = system: TE-5;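 further: inhibition of cell growth, read out by a cell viability assay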
Description: SANGER: Inhibition of human TE-5 cell growth in a cell viability assay.

[37] = system: LAMA-84;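 further: growth inhibition of LAMA-84 cells, read out with a cell viability assay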
Description: SANGER: Inhibition of human LAMA-84 cell growth in a cell viability assay.

[38] = system: NCI-H82;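 further: growth inhibition of NCI-H82 cells, measured with a cell viability readout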
Description: SANGER: Inhibition of human NCI-H82 cell growth in a cell viability assay.

[39] = system: HEL;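 further: growth inhibition of HEL cells, read out with a cell viability assay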
Description: SANGER: Inhibition of human HEL cell growth in a cell viability assay.

[40] = system: TE-9;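 further: cell growth inhibition, measured with a cell viability readout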
Description: SANGER: Inhibition of human TE-9 cell growth in a cell viability assay.

[41] = system: SK-NEP-1;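 further: growth inhibition of human SK-NEP-1 cells, read out by a cell viability assay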
Description: SANGER: Inhibition of human SK-NEP-1 cell growth in a cell viability assay.

[42] = system: OCI-AML2;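 further: growth inhibition of OCI-AML2 cells, read out with a cell viability assay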
Description: SANGER: Inhibition of human OCI-AML2 cell growth in a cell viability assay.

[43] = system: LNCaP-Clone-FGC
Description: SANGER: Inhibition of human LNCaP-Clone-FGC cell growth in a cell viability assay.

[44] = system: GT3TKB;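 further: growth inhibition of the cell line, read out with a cell viability assay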
Description: SANGER: Inhibition of human GT3TKB cell growth in a cell viability assay.

[45] = system: RKO;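 further: growth inhibition of human RKO cells, read out with a cell viability assay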
Description: SANGER: Inhibition of human RKO cell growth in a cell viability assay.

[46] = system: NB10;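 further: growth inhibition of NB10 cells, read out by a cell viability assay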
Description: SANGER: Inhibition of human NB10 cell growth in a cell viability assay.

[47] = system: NOS-1;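 further: growth inhibition of the human NOS-1 cell line, read out with a cell viability assay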
Description: SANGER: Inhibition of human NOS-1 cell growth in a cell viability assay.

[48] = system: OVCAR-4;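 further: growth inhibition of human OVCAR-4 cells, measured with a cell viability assay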
Description: SANGER: Inhibition of human OVCAR-4 cell growth in a cell viability assay.

[49] = system: EW-13;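 further: growth inhibition of EW-13 cells, read out with a cell viability assay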
Description: SANGER: Inhibition of human EW-13 cell growth in a cell viability assay.

[50] = system: UACC-257
Description: SANGER: Inhibition of human UACC-257 cell growth in a cell viability assay.

[51] = system: U-266
Description: SANGER: Inhibition of human U-266 cell growth in a cell viability assay.

[52] = system: NCI-H747;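 further: growth inhibition of human NCI-H747 cells, read out by a cell viability assay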
Description: SANGER: Inhibition of human NCI-H747 cell growth in a cell viability assay.

[53] = system: TE-6;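 further: growth inhibition of TE-6 cells, read out with a cell viability assay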
Description: SANGER: Inhibition of human TE-6 cell growth in a cell viability assay.

[54] = system: HCC1187;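 further: growth inhibition of HCC1187 cells, read out with a cell viability assay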
Description: SANGER: Inhibition of human HCC1187 cell growth in a cell viability assay.

[55] = system: NCI-H1304;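 further: growth inhibition of the cancer cell line, measured in a cell viability assay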
Description: SANGER: Inhibition of human NCI-H1304 cell growth in a cell viability assay.

[56] = system: SW982;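 further: growth inhibition of SW982 cells, read out with a cell viability assay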
Description: SANGER: Inhibition of human SW982 cell growth in a cell viability assay.

[57] = system: KARPAS-45;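 further: inhibition of cell line growth, read out through a viability assay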
Description: SANGER: Inhibition of human KARPAS-45 cell growth in a cell viability assay.

[58] = system: K562
Description: SANGER: Inhibition of human K-562 cell growth in a cell viability assay.

[59] = system: HD-MY-Z
Description: SANGER: Inhibition of human HD-MY-Z cell growth in a cell viability assay.

[60] = system: MFM-223
Description: SANGER: Inhibition of human MFM-223 cell growth in a cell viability assay.

[61] = system: DEL
Description: SANGER: Inhibition of human DEL cell growth in a cell viability assay.

[62] = system: COLO-800
Description: SANGER: Inhibition of human COLO-800 cell growth in a cell viability assay.

[63] = system: MZ2-MEL
Description: SANGER: Inhibition of human MZ2-MEL cell growth in a cell viability assay.

[64] = system: SK-UT-1
Description: SANGER: Inhibition of human SK-UT-1 cell growth in a cell viability assay.

[65] = system: KALS-1
Description: SANGER: Inhibition of human KALS-1 cell growth in a cell viability assay.

CC(=O)c1c(C)c2cnc(Nc3ccc(N4CCNCC4)cn3)nc2n(C2CCCC2)c1=O [PALBOCICLIB]
pIC50 [1]: 5.52 | pIC50 [2]: < 5.40 | pIC50 [3]: < 5.40 | pIC50 [4]: < 5.40 | pIC50 [5]: < 5.40 | pIC50 [6]: < 5.40 | pIC50 [7]: < 5.40 | pIC50 [8]: < 5.40 | pIC50 [9]: < 5.40 | pIC50 [10]: < 5.40 | pIC50 [11]: < 5.40 | pIC50 [12]: 6.07 | pIC50 [13]: 6.14 | pIC50 [14]: < 5.40 | pIC50 [15]: < 5.40 | pIC50 [16]: < 5.40 | pIC50 [17]: < 5.40 | pIC50 [18]: < 5.40 | pIC50 [19]: 6.22 | pIC50 [20]: 6.17 | pIC50 [21]: 5.73 | pIC50 [22]: < 5.40 | pIC50 [23]: 5.93 | pIC50 [24]: < 5.40 | pIC50 [25]: 5.42 | pIC50 [26]: < 5.40 | pIC50 [27]: 6.46 | pIC50 [28]: < 5.40 | pIC50 [29]: < 5.40 | pIC50 [30]: < 5.40 | pIC50 [31]: 5.61 | pIC50 [32]: < 5.40 | pIC50 [33]: 5.44 | pIC50 [34]: < 5.40 | pIC50 [35]: 6.22 | pIC50 [36]: < 5.40 | pIC50 [37]: 6.59 | pIC50 [38]: < 5.40 | pIC50 [39]: 5.89 | pIC50 [40]: < 5.40 | pIC50 [41]: 6.66 | pIC50 [42]: < 5.40 | pIC50 [43]: < 5.40 | pIC50 [44]: 5.59 | pIC50 [45]: 5.62 | pIC50 [46]: 6.22 | pIC50 [47]: < 5.40 | pIC50 [48]: < 5.40 | pIC50 [49]: < 5.40 | pIC50 [50]: < 5.40 | pIC50 [51]: < 5.40 | pIC50 [52]: 5.63 | pIC50 [53]: < 5.40 | pIC50 [54]: < 5.40 | pIC50 [55]: < 5.40 | pIC50 [56]: < 5.40 | pIC50 [57]: 6.42 | pIC50 [58]: < 5.40 | pIC50 [59]: < 5.40 | pIC50 [60]: < 5.40 | pIC50 [61]: 5.77 | pIC50 [62]: 6.05 | pIC50 [63]: 5.75

CCCS(=O)(=O)Nc1ccc(F)c(C(=O)c2c[nH]c3ncc(Cl)cc23)c1F [PLX-4720]
pIC50 [1]: < 5.00 | pIC50 [2]: < 5.00 | pIC50 [3]: < 5.00 | pIC50 [4]: < 5.00 | pIC50 [5]: < 5.00 | pIC50 [6]: < 5.00 | pIC50 [7]: < 5.00 | pIC50 [8]: < 5.00 | pIC50 [9]: < 5.00 | pIC50 [10]: < 5.00 | pIC50 [11]: < 5.00 | pIC50 [12]: 5.02 | pIC50 [13]: < 5.00 | pIC50 [14]: < 5.00 | pIC50 [15]: < 5.00 | pIC50 [16]: < 5.00 | pIC50 [64]: < 5.00 | pIC50 [17]: < 5.00 | pIC50 [18]: < 5.00 | pIC50 [19]: < 5.00 | pIC50 [20]: < 5.00 | pIC50 [21]: < 5.00 | pIC50 [22]: < 5.00 | pIC50 [23]: < 5.00 | pIC50 [24]: < 5.00 | pIC50 [25]: 6.49 | pIC50 [26]: < 5.00 | pIC50 [27]: < 5.00 | pIC50 [28]: < 5.00 | pIC50 [29]: < 5.00 | pIC50 [30]: < 5.00 | pIC50 [31]: < 5.00 | pIC50 [32]: < 5.00 | pIC50 [33]: < 5.00 | pIC50 [34]: < 5.00 | pIC50 [35]: < 5.00 | pIC50 [36]: < 5.00 | pIC50 [37]: < 5.00 | pIC50 [38]: < 5.00 | pIC50 [39]: < 5.00 | pIC50 [40]: < 5.00 | pIC50 [41]: < 5.00 | pIC50 [42]: < 5.00 | pIC50 [43]: < 5.00 | pIC50 [44]: < 5.00 | pIC50 [45]: < 5.00 | pIC50 [46]: < 5.00 | pIC50 [47]: < 5.00 | pIC50 [65]: < 5.00 | pIC50 [48]: < 5.00 | pIC50 [49]: < 5.00 | pIC50 [50]: < 5.00 | pIC50 [51]: < 5.00 | pIC50 [52]: < 5.00 | pIC50 [53]: < 5.00 | pIC50 [54]: < 5.00 | pIC50 [55]: < 5.00 | pIC50 [56]: 5.07 | pIC50 [57]: 5.69 | pIC50 [58]: < 5.00 | pIC50 [59]: < 5.00 | pIC50 [60]: < 5.00 | pIC50 [61]: < 5.00 | pIC50 [62]: < 5.00 | pIC50 [63]: < 5.00
